These results are taken from patent US12110533B2, “Stabilisation and isolation of extracellular nucleic acids” (Qiagen GmbH, priority 2011, dated 2024).

Peptide text beside a SMILES is read from it. * marks the point of attachment. Cbz = O=C(OCc1ccccc1)*; CH2Cl = ClC*; CH2F = FC* Bounds are passed on as bounds.

One assay deals with T1, calpain II (Homo sapiens, UniProt P17655).
T1 sequence (P17655 1-700): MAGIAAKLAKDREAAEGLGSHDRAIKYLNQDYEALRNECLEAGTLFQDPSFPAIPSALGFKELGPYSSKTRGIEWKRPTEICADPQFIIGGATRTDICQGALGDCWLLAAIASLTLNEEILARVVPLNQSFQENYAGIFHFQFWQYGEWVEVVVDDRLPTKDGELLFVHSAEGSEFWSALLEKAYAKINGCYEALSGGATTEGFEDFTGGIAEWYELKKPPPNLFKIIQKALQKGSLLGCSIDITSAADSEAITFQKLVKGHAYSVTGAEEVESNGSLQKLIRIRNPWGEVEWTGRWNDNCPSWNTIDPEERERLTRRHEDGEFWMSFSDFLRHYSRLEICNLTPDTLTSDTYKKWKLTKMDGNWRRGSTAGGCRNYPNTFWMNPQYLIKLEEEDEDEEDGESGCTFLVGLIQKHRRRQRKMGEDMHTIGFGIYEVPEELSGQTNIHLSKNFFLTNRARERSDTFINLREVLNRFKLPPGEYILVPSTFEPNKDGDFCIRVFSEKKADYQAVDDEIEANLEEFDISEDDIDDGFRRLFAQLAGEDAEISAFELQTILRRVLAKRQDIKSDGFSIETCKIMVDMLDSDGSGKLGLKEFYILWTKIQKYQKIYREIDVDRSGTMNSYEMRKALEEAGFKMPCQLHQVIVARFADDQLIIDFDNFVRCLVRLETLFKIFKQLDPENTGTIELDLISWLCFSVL
T1 sequence (P04632 1-268 partner): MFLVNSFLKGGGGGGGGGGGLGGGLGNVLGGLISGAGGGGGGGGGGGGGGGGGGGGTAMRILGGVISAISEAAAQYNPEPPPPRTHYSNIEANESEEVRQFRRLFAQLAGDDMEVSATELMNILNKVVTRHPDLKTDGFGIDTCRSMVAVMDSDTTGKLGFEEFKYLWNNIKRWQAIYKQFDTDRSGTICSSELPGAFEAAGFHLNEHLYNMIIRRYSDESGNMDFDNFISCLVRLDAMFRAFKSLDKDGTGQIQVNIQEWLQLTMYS
To be noted: irreversible inhibitor; cited from earlier work.

Another assay has as its target cathepsin L (Homo sapiens, UniProt P07711). To be noted: cited from earlier work.
Another assay addresses T2, fragmentin 2 (Rattus norvegicus, UniProt P18291).
T2 sequence (P18291 21-248): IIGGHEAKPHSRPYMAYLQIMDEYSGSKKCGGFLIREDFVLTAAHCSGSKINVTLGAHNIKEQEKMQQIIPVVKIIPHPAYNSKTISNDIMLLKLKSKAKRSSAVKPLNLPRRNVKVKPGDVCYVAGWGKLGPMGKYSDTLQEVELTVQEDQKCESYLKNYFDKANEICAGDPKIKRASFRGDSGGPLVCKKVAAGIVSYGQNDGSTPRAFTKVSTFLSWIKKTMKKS
To be noted: read-out: ID50 (the source's name); cited from earlier work.

The conditions of assay [1]: administered in rats in vivo; cited from earlier work.
For assay [2], the system named is whole blood samples. Kind of assay: 18S DNA duplex real time PCR assay: increase of ribosomal 18S DNA (ccfDNA) in plasma of stored whole blood. The format is cell-based, human. Particulars: for increase of ribosomal 18S DNA in plasma: Example 1, 20 μM in whole blood; for increase of ribosomal 18S DNA in plasma / increase of genomic DNA in plasma: within 7 days of storage at RT; for increase of genomic DNA in plasma: Example 2; for change of ccfDNA level in plasma (day X copies/day 0 copies): Example 8, RT up to 6 days, DHA 0.5 M, inositol 0.05 M, maltitol 0.01 M, mannitol. The method, then: A test system was designed, wherein cell-containing biological samples, here whole blood samples, were incubated at room temperature (RT) for up to 6 or 7 days. Therein, the sample stabilizing properties of the additives of the present invention were tested on day 0, day 3 and day 6/7 the samples.
(§1) The circulating, extracellular nucleic acids were purified from the obtained plasma samples using the QIAamp® Circulating NA Kit (according to the handbook). In brief: • 10 ml sample input; • lysis: 1 ml Proteinase K and 8 ml Buffer ACL (QIAGEN) • binding: 18 ml Buffer ACB (QIAGEN) • wash-steps: unchanged and according to handbook • elution in 60 μl Buffer AVE (QIAGEN)
4.2. DNA quantification with a real time PCR assay, sensitive for DNA degradation (target: 500 and 66 bp long ribosomal 18S DNA coding sequences).
(samples were diluted 1:10 before amplification)
Detection of ribosomal 18S DNA by quantitative real-time PCR, makes it possible to calculate the x-fold increase of DNA from day 0 to day 3 or 7 (calculation: division of day 3 (or 7) copies by day 0 copies).
The division of short amplicon copy number by long amplicon copy number (66 bp/500 bp) indicates whether the amount of detected short or long amplicons changes over time in a similar way. A decrease of this ratio implies a stronger release of longer rather than of shorter DNA molecules and can be interpreted as release of high molecular weight genomic DNA from blood cells.
On day 0, day 3 and day 6, replicates were processed as follows. […] The cleared plasma fraction was collected and the extracellular nucleic acids were isolated using the QIAamp Circulating nucleic acid kit (1 ml input material, 60 μl elution volume). […] Values that are close to 1 imply preserved levels of ccfDNA. The higher the value, the less stabilization is achieved.

Assay [3] concerns whole blood samples. Kind of assay: Chip gel electrophoresis of DNA isolated from plasma of stored whole blood (DNA size distribution, blood cell stability/DNA release). The format is cell-based. To be noted: for ladder-like pattern (release/fragmentation of genomic DNA): Example 1, 20 μM in 10 ml K2E whole blood, RT, day 3 and day 7, vs DMSO control and K2E blood; for genomic DNA release/fragmentation: Example 2, day 7, RT. Here is the method:
A test system was designed, wherein cell-containing biological samples, here whole blood samples, were incubated at room temperature (RT) for up to 6 or 7 days. Therein, the sample stabilizing properties of the additives of the present invention were tested on day 0, day 3 and day 6/7 the samples. The samples were processed according to the following protocols, where applicable (for details, see also the specific examples in the results section):
To separate the blood plasma from the whole blood, the blood samples were centrifuged for 15 min at 5000 rpm, and the obtained plasma samples were again centrifuged for 10 min at 16,000×g at 4° C.
as §1
4.1. Measurement of the blood cell stability/DNA release by the determination of DNA size distribution using a chip gel electrophoresis (2100 Bioanalyzer; Agilent Technologies; Inc., USA) according to manufacturer's instruction (see handbook Agilent DNA 7500 and DNA 12000 Kit Guide), but 1.5 μl instead of 1 μl sample were transferred to the wells.
The eluted circulating cell-free DNA was separated by size using chip gel electrophoresis (for details on the method see above, I, 4.1). […] The DMSO control and the K2E blood (not treated according to the teachings of the present invention) show the same ladder-like pattern of bands. This pattern occurs in samples where apoptosis takes place. During apoptosis, endonucleases degrade genomic DNA at inter-nucleosomal linker regions and produce DNA fragments of circa 180 bp or multiples of 180 bp. Thus, apoptosis occurs in samples which show a clear ladder-like pattern. Furthermore, the strength (darkness) of the pattern is decisive. The darker the bands, the more genomic DNA was released from the cells and thus contaminates the extracellular nucleic acid population.

Sequence of cathepsin L (P07711 114-333, species assumed): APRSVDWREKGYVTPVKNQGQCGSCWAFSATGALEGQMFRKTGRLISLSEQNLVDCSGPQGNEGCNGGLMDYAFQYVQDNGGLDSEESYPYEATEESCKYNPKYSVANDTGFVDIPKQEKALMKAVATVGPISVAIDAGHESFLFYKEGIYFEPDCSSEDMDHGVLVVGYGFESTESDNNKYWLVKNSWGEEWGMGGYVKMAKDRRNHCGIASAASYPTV

Turning to `CC(C)C[C@H](NC(=O)OCc1ccccc1)C(=O)N[C@@H](CC(C)C)C(=O)N[C@@H](Cc1ccc(O)cc1)C(=O)CF` [Calpain Inhibitor IV, Z-Leu-Leu-Tyr-CH2F] (Cbz-Leu-Leu-Tyr-CH2F), the k2 is on record as 28,900 M-1s-1). Also acts as an inhibitor of cathepsin L (k2 = on calpain II and 680,000 M-1s-1) at cathepsin L. For `CC(NC(=O)OCc1ccccc1)C(=O)NC(C)C(=O)NC(CC(=O)O)C(=O)CCl` (stereo not drawn) [Granzyme B Inhibitor I, Z-Ala-Ala-Asp-CH2Cl] (Cbz-Ala-Ala-Asp-CH2Cl; configuration not given here), the IC50 at fragmentin 2 is 300 nM. Regarding `N=c1sc2c(n1CC(=O)c1ccc([N+](=O)[O-])cc1)CCCC2` [Pifithrin-α, ρ-Nitro], the “more potent than Pifithrin-α in vivo” value in assay [1] was 100-fold more potent than Pifithrin-α when adminstered in rats in. Consider `CC(C)C(NC(=O)c1ccc2ccccc2n1)C(=O)NC(CC(=O)O)C(=O)COc1c(F)cccc1F` (stereo not drawn) [Q-VD-OPh, Quinoline-Val-Asp-CH2-OPH], for which, in the assay with whole blood samples [2], the “increase of ribosomal 18S DNA in plasma” value is “reduced increase of DNA”. Moreover, the entries for the “increase of genomic DNA in plasma” value in the assay with whole blood samples [2] (1 μM with 21 mM glucose) and with whole blood samples [2] (4 μM with 21 mM glucose) were “only a minor increase” and not above 4 fold, respectively. For the same compound, in the assay on whole blood samples [3], the “ladder-like pattern (release/fragmentation of genomic DNA)” value is given as “significantly reduced ladder-like patterns”. For the same compound, the entries for the “genomic DNA release/fragmentation” value in the assay with whole blood samples [3] (1 μM with 21.4 mM glucose) and with whole blood samples [3] (4 μM with 21.4 mM glucose) were “significantly reduced” and “effect is improved”, respectively. With `O[C@H]1[C@H](O)[C@@H](O)[C@H](O)[C@@H](O)[C@H]1O` [inositol, Cyclohexane-1,2,3,4,5,6-geksol], the “change of ccfDNA level in plasma (day X copies/day 0 copies)” value in the assay with whole blood samples [2] is “suitable alternatives”.

For the compound `OC[C@@H](O)[C@@H](O[C@H]1O[C@H](CO)[C@@H](O)[C@H](O)[C@H]1O)[C@H](O)[C@@H](O)CO` [maltitol, 4-O-α-D-Glucopyranosyl-D-glucitol], the “change of ccfDNA level in plasma (day X copies/day 0 copies)” value with whole blood samples [2] is “suitable alternatives”. On the same count and under the same terms, the same measure for `OCC(O)C(O)C(O)C(O)CO` (stereo not drawn) [mannitol, Hexane-1,2,3,4,5,6-hexol]: “stabilization effects over 3 days”. Take Cbz-Val-Ala-Asp(OMe)-CH2F: in the assay with whole blood samples [2], the “increase of ribosomal 18S DNA in plasma” value is “more prominent on day 7”. In addition, the “ladder-like pattern (release/fragmentation of genomic DNA)” value in the assay on whole blood samples [3] was “reduced ladder-like pattern”.
